The test has as its target T1, KOD DNA polymerase (exonuclease deficient mutant D141A, E143A) (Thermococcus kodakarensis, UniProt P77933, D141A/E143A).
T1 construct: gene pol; exonuclease-deficient polymerase, codon-optimized, pET24a (NdeI/NotI), E. coli BL21(DE3); intein-free mature protein
In words: X-ray crystal structure of closed ternary complex. As to conditions: primer/template DNA (21 nt template, with canonical bases in KOD-21nt or uracil at +6 in KOD-U); polymerase active site, Mg2+ and Mn2+; pH 7.5 (KOD-21nt) or 6.5 (KOD-U). The test is classed as binding.

As to `Nc1ncnc2c1ncn2[C@H]1C[C@H](O)[C@@H](COP(=O)(O)OP(=O)(O)OP(=O)(O)O)O1` [dATP], the “X-ray crystal structure of closed ternary complex” value is “closed ternary complex, with dATP and three metal ions”.

Values taken from publication PMC8596578, “Structural Basis for The Recognition of Deaminated Nucleobases by An Archaeal DNA Polymerase” (Chembiochem, 2021).
